Assay results: patent US20100249419A1, “UTILIZATION OF NOVEL COMPOUNDS WITH AMYLOID AFFINITY AND METHOD OF PRODUCING THE SAME” (NIHON MEDI-PHYSICS CO., LTD., priority 2007, published 2010)
pIC50: −log10 of the molar value.

What was measured:
[1] = biological target: T1, aggregated Aβ (Aβ1-42) amyloid (Homo sapiens, UniProt P05067); test: In vitro binding test: inhibition of [^125I]3′-I-BTA-0 binding to amyloid; conditions: [^125I]3′-I-BTA-0 400 pmol/L, amyloid 1 μmol/L, 22° C., 3 hours
T1 construct: Aβ1-42 (manufactured by Wako) was dissolved in phosphate buffer (pH 7.4); purchased Wako
Description: Affinity of the present compounds with amyloid was examined by the following in vitro binding tests.
The measured radioactivity level was defined as the background radioactivity level, and used in the calculation of the inhibition ratio (hereinafter referred to as BG).
(9) Using the radioactivity levels measured above in (7) and (8), the inhibition ratio was determined by the following formula (1).
A graph in which values converted by probit transformation from the obtained inhibition ratios were plotted relative to logarithms of concentrations of compounds for evaluation was prepared to obtain an approximate straight line by the least square method.

[2] = test system: Salmonella typhimurium TA98; test: Reverse mutation test (Ames test), TA98; type: cell-based
Description: (§1) In order to examine gene mutagenicity of Compounds 3, 5 and 8, reverse mutation test using Salmonella typhimurium TA98 and TA100 (hereinafter referred to as Ames test) was conducted.
(§2) The test was conducted without addition of S9mix and with addition of S9mix. Dimethylsulfoxide (hereinafter referred to as DMSO) was used as a negative control. A positive control was 2-(2-furyl)-3-(5-nitro-2-furyl)acrylamide (hereinafter referred to as AF-2) in case S9mix was not added, and 2-aminoanthracene (hereinafter referred to as 2-AA) in case S9mix was added.
(§3) As a sample solution to be added to a test plate, each compound was dissolved in DMSO to prepare a solution at a concentration of 50 mg/mL, and further, each solution was diluted with DMSO to prepare a solution with 7 dosage (geometric ratio 3). As a sample solution for preparing a sample of positive control, when TA98 was used as a test strain without addition of S9mix, a solution of AF-2 (compound concentration: 1 μg/mL) in DMSO was prepared; when TA100 was used as a test strain without addition of S9mix, a solution of AF-2 (compound concentration: 0.1 μg/mL) in DMSO was prepared; when TA98 was used as a test strain with addition of S9mix, a solution of 2-AA (compound concentration: 5 μg/mL) in DMSO was prepared; and when TA100 was used as a test strain with addition of S9mix, a solution of 2-AA (compound concentration: 10 μg/mL) in DMSO was prepared.
(§4) After each sample solution to be examined and a test strain (TA98 or TA100) were mixed together so as to make the addition amount of each sample to be 0.1 mL/plate, the mixture was multilayered using soft agar on a medium of a test plate, and then incubated at 37° C. for 48 hours. Separately, after each sample solution to be examined, S9mix and a test strain were mixed together so as to make the addition amount of each sample to be 0.1 mL/plate, the mixture was multilayered using soft agar on a medium of a test plate, and then incubated at 37° C. for 48 hours. On the other hand, only DMSO was used as a sample solution to perform the same procedure as above for the negative control. […]

[3] = test system: Salmonella typhimurium TA100; test: Reverse mutation test (Ames test), TA100; type: cell-based
Description: as §1, §2, §3, §4

[4] = International Publication No. WO03/106439; cited from earlier work
[5] = [^125I]-labeled compounds, normal mice; cited from earlier work
[6] = Transferability into brain and clearance; type: in vivo, male Wistar rats; conditions: intravenous injection, rats, Table 7
Description: Using Compound 1 (Example 10) and Compound 2 (Example 11), a time course change of radioactive accumulation in brain of male Wistar rats (7-week old) was measured.
A diethyl ether solution of Compound 1 (Example 10) prepared in Example 3, a diethyl ether solution of Compound 2 (Example 11) prepared in Example 6 and a diethyl ether solution of [^123I]-IMPY (Comparative Example 5) prepared in Reference Example 1 were each diluted with 10 mg/mL ascorbic acid-containing physiological saline solution to adjust to a radioactive concentration of 8-12 MBq/mL. 0.05 mL each of the prepared sample solutions was injected under thiopental anesthesia into the tail vein of the rats. The rats were sacrificed by bleeding from abdominal artery, and brains were removed and subjected to measurement of mass of brains and further subjected to measurement of radioactivity (hereinafter referred to as A in this Example) with a single channel analyzer (detector type: SP-20 manufactured by OHYO KOKEN KOGYO Co., Ltd.) 2, 5, 30 and 60 minutes after the injection. Further, the radioactivity level of the rest of the whole body was measured in the same manner as above (hereinafter referred to as B in this Example). Using these measurement results, radioactive distribution per unit weight of brain (% ID/g) at the respective time points were calculated in accordance with the following formula (3).
Three animals were used for the experiment at the respective time points.
Using Compound 4 and Compound 6, a time course change of radioactive accumulation in brain of male Wistar rats (7-week old) was measured.
Compound 4 (Example 22), Compound 6 (Example 23) and a solution of [^123I]-IMPY (Comparative Example 8) prepared above in Reference Example 1 were each diluted with a 10 mg/mL ascorbic acid-containing physiological saline solution to prepare solutions (20-31 MBq/mL in radioactive concentration). 0.05 mL each of the prepared sample solutions was injected under thiopental anesthesia into the tail vein of the respective Wistar rat (7-week old). The rats were sacrificed by bleeding from abdominal artery, and brains were removed and subjected to measurement of mass of brains and further subjected to measurement of radioactivity (hereinafter referred to as A in this Example) with a single channel analyzer (detector type: SP-20 manufactured by OHYO KOKEN KOGYO Co., Ltd.) 2, 5, 30 and 60 minutes after the injection. Further, the radioactivity level of the rest of the whole body was measured in the same manner as above (hereinafter referred to as B in this Example). Using these measurement results, radioactive distribution per unit weight of brain (% ID/g) at the respective time points were calculated in accordance with the following formula (5).

[7] = Partition coefficient based on the octanol extraction method; type: physicochemical; conditions: octanol / 10 mmol/L phosphate buffer (pH 7.4); Table 6, Examples 20-21
Description: Partition coefficients based on the octanol extraction method (hereinafter referred to as log Poctanol) were measured, which are generally known as an indicator of permeability of compounds through the blood-brain barrier (hereinafter referred to as BBB).
A diethyl ether solution of Compound 1 prepared in Example 3 (Example 8), a diethyl ether solution of Compound 2 prepared in Example 6 (Example 9), and a diethyl ether solution of [^123I]-IMPY prepared in Reference Example 1 (Comparative Example 4) were each diluted with 10 mg/mL ascorbic acid-containing physiological saline solution, and adjusted to a radioactive concentration of 20-30 MBq/mL. To 2 mL of octanol, 10 μL each of the prepared sample solutions was added, 2 mL of 10 mmol/L phosphate buffer (pH 7.4) was added, followed by stirring for 30 seconds. After the mixture was centrifuged with a low-speed centrifuge (2000 rpm×60 min.), the octanol layer and the water layer were sampled each in an amount of 1 mL, and subjected to measurement of radioactivity count with an autowell gamma system (Type: ARC-301B, manufactured by Aloka). Using the obtained radioactivity count, log Poctanol was calculated in accordance with the equation (2).
A diethyl ether solution (Example 20) of Compound 4 prepared in Example 16, a diethyl ether solution (Example 21) of Compound 6 prepared in Example 19, and a diethyl ether solution (Comparative Example 7) of [^123I]-IMPY were each diluted with a 10 mg/mL ascorbic acid-containing physiological saline solution to adjust to a radioactive concentration of 20-30 MBq/mL. To 2 mL of octanol, 10 μL each of the prepared sample solution was added, and 2 mL of 10 mmol/L phosphate buffer (pH 7.4) was further added, followed by stirring for 30 seconds. After the mixture was centrifuged with a low-speed centrifuge (2000 rpm×60 min.), the octanol layer and the water layer were sampled each in an amount of 1 mL, and subjected to measurement of radioactivity count with an autowell gamma system (Type: ARC-301B, manufactured by Aloka). Using the obtained radioactivity count, logPoctanol was calculated in accordance with the equation (4).

[8] = biological target: T2, aggregated Aβ (Aβ1-42) injected into amygdaloid nucleus (Homo sapiens, UniProt P05067); test: Confirmation of imaging of amyloid in brain (ex vivo autoradiogram, Aβ1-42); set-up: species or system male Wistar rat; conditions: brain slice 60 minutes after tail vein injection
T2 construct: Aβ1-42 (manufactured by Wako) was dissolved in phosphate buffer (pH 7.4); purchased Wako
Description: The following experiment was carried out in order to examine whether amyloid in brain can be imaged by the compound of the present invention.
(1) Aβ1-42 (manufactured by Wako) was dissolved in phosphate buffer (pH 7.4) and shaken at 37° C. for 72 hours, to obtain a 1 mg/mL suspension of aggregated Aβ (hereinafter referred to as amyloid suspension in the Examples).
(2) 2.5 μL (corresponding to […]) of the amyloid suspension was injected into an amygdaloid nucleus on one side of a male Wistar rat (7-week old). As a control, 2.5 μL of a phosphate buffered physiological saline solution (pH 7.4) was injected into an amygdaloid nucleus on the other side of the rat. The rats were examined 1 day after the injection of the amyloid suspension and the phosphate buffered physiological saline solution (pH 7.4).
(3) Compound 1 was dissolved in a 10 mg/mL ascorbic acid-containing physiological saline solution to obtain a sample solution (22 MBq/mL in radioactivity concentration in the sample solution). This solution was injected under thiopental anesthesia into the rat through the tail vein (dosage: 0.5 mL, dosed radioactivity: 11-13 MBq equivalent).
(4) Brain was removed 60 minutes after the injection to prepare a brain slice of 10 μm in thickness with a microtome (type: CM3050S, manufactured by LEICA). The brain slice was exposed to an imaging plate for 20 hours, and then image analysis was carried out by use of a Bio-imaging Analyzer (type: BAS-2500; manufactured by FUJIFILM Corporation).
(5) After the completion of the image analysis using the Bio-imaging Analyzer, […]
Thus, it was confirmed that amyloid was deposited on the slice (FIG. 6b).
The same procedures as in Example 12 were performed except using a solution of Compound 2 in a 10 mg/mL ascorbic acid as a sample solution (the radioactive concentration of the sample solution was 25 MBq/mL).
(1) Aβ1-42 (manufactured by Wako) was dissolved in phosphate buffer (pH 7.4) and shaken at 37° C. for 72 hours, to obtain 1 mg/mL of a suspension of aggregated Aβ (hereinafter referred to as amyloid suspension in the Examples).
(3) A sample solution (30 MBq/mL in radioactivity concentration, Example 24) in which Compound 4 was dissolved in a 10 mg/mL ascorbic acid-containing physiological saline solution and a sample solution (30 MBq/mL in radioactivity concentration, Example 25) in which Compound 6 was dissolved in a 10 mg/mL ascorbic acid-containing physiological saline solution were prepared. This solution was injected under thiopental anesthesia into the rat through the tail vein (dosage: 0.5 mL, dosed radioactivity: 11-15 MBq equivalent).
Thus, it was confirmed that amyloid was deposited on the slice (FIG. 12 and FIG. 13).

[9] = TA98, without addition of S9mix
[10] = TA100, without addition of S9mix

T1 sequence (P05067 672-713): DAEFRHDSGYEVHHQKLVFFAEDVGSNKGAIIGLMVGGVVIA
T2 sequence (P05067 672-713): as above

Row | Compound | Mutagenicity ([2]; TA98, with addition of S9mix) | Mutagenicity [2, 9] | Mutagenicity ([3]; TA100, with addition of S9mix) | Mutagenicity [3, 10] | Clearance from normal tissues [5] | further results
1 | Nc1c(/N=N/c2ccc(-c3ccc(/N=N/c4cc(S(=O)(=O)O)c5ccccc5c4N)cc3)cc2)cc(S(=O)(=O)O)c2ccccc12 [Congo Red, reference compound] | – | – | – | – | – | pIC50 [1]: < 6.00
2 | OCCOc1cccc(-c2cn3cc(I)ccc3n2)c1 [Compound 5, 2-[3′-(2″-hydroxyethoxy)phenyl]-6-iodoimidazo[1,2-a]pyridine] | Negative | Negative | Negative | Negative | – | –
3 | CN(C)c1ccc(-c2cn3cc(I)ccc3n2)cc1 [IMPY, 6-iodo-2-[4′-(N,N-dimethylamino)phenyl]imidazo[1,2-a]pyridine] | – | – | – | – | – | Reverse mutation test result [4]: positive
4 | CC(=C(C#N)C#N)c1ccc2cc(N(C)CCF)ccc2c1 [FDDNP, 2-(1-{6-[(2-fluoroethyl)(methyl)amino]-2-naphthyl}ethylidene)malononitrile] | – | – | – | – | – | Reverse mutation test result [4]: positive
5 | CCC[CH2][Sn]([CH2]CCC)([CH2]CCC)[c]1ccc2nc(-c3ccc(OCCO)cc3)cn2c1 [Compound 9, 6-tributylstannyl-2-[4′-(2″-hydroxyethoxy)phenyl]imidazo[1,2-a]pyridine] | Negative | Negative | Negative | Negative | – | –
6 | CN(C)c1ccc(/C=C/c2ccc(I)cc2)cc1 [m-I-SB, (E)-4-dimethylamino-4′-iodostilbene] | – | – | – | – | insufficient in clearance from normal tissues | –
7 | CN(C)c1ccc(-c2nc3ccc(I)cc3s2)cc1 [TZDM, 6-iodo-2-[4′-(N,N-dimethylamino)phenyl]benzothiazole] | – | – | – | – | insufficient in clearance from normal tissues | –
8 | CCOc1ccc(-c2cn3cc(I)ccc3n2)cc1 [Compound 8, 2-(4′-ethoxyphenyl)-6-iodoimidazo[1,2-a]pyridine] | Negative | Negative | Negative | Negative | – | –
9 | 2-[3′-(2″-hydroxyethoxy)phenyl]-6-[^123I]iodoimidazo[1,2-a]pyridine [Compound 4] | – | – | – | – | – | Radioactive distribution per unit weight of brain ([6]; After 2 min.): 0.56 % ID/g; Radioactive distribution per unit weight of brain ([6]; After 5 min.): 0.28 % ID/g; Radioactive distribution per unit weight of brain ([6]; After 30 min.): 0.04 % ID/g; Radioactive distribution per unit weight of brain ([6]; After 60 min.): 0.01 % ID/g; logPoctanol value [7]: 2.5; Accumulation of radioactivity in amygdaloid nucleus on the amyloid-injected side [8]: marked accumulation of radioactivity
10 | CN(C)c1ccc(-c2nc3ccc(I)cc3o2)cc1 [IBOX, 6-iodo-2-[4′-(N,N-dimethylamino)phenyl]benzoxazole] | – | – | – | – | insufficient in clearance from normal tissues | –
